Measurements as given in ChEMBL document CHEMBL1140248, “3-(1,2,3-Triazol-1-yl)-1-thio-galactosides as small, efficient, and hydrolytically stable inhibitors of galectin-3” (Bioorg Med Chem Lett, 2005).

How the values were obtained:
Galectin-3 = Galectin-3 (Mus musculus, UniProt P16110); assay: Dissociation constant for mouse Galectin-3
[1] = biological target: Galectin-3 (Mus musculus) (UniProt P16110); assay: Relative affinity for mouse Galectin-3 compared to D-galactose-methyl-beta-glycoside; type: functional
Galectin-3 (Mus musculus), sequence (P16110 whole entry): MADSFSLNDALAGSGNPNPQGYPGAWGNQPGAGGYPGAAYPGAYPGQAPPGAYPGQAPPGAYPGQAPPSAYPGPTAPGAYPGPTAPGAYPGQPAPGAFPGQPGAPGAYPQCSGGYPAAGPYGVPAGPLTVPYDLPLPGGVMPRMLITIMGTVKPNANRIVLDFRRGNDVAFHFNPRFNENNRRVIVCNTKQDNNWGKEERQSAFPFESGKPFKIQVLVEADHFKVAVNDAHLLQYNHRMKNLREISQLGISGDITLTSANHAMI

Galectin-3, sequence (P16110 whole entry): as above

Row | Molecule | Kd (Galectin-3) [µM] | Affinity [1]
1 | CSC1OC(CO)C(O)C(NC(=O)c2ccccc2)C1O (stereo not drawn) | 2690 | 1.7
2 | CS[C@H]1O[C@@H](COC2O[C@@H](OC([C@H](O)CO)[C@H](O)[C@@H](NC(C)=O)C(C)=O)[C@H](O)[C@@H](O)[C@H]2O)[C@H](O)[C@@H](NC(=O)c2ccc3ccccc3c2)[C@@H]1O (stereo partly drawn) | 67 | 64
3 | CSC1OC(CO)C(O)C(NC(=O)c2ccc3ccccc3c2)C1O (stereo not drawn) | 272 | 16
4 | CCCCNC(=O)c1cn(C2C(O)C(CO)OC(SC)C2O)nn1 (stereo not drawn) | 124 | 36
5 | CSC1OC(CO)C(O)C(n2cc(C(=O)NCc3ccccc3)nn2)C1O (stereo not drawn) |  | 42
6 | CSC1OC(CO)C(O)C(n2ccnn2)C1O (stereo not drawn) | > 20000 | < 0.2
7 | CSC1OC(CO)C(O)C(n2cc(-c3ccccc3)nn2)C1O (stereo not drawn) | 147 | 29
8 | CS[C@H]1O[C@@H](COC2O[C@@H](O)[C@H](O)[C@@H](O)[C@H]2O)[C@H](O)[C@@H](NC(=O)c2ccc3ccccc3c2)[C@@H]1O (stereo partly drawn) | 4400 | 1
9 | CCCc1cn(C2C(O)C(CO)OC(SC)C2O)nn1 (stereo not drawn) | 4600 | 1
10 | CNC(=O)c1cn(C2C(O)C(CO)OC(SC)C2O)nn1 (stereo not drawn) | 230 | 19
11 | CSC1OC(CO)C(O)C(n2cc(C(=O)NCCCO)nn2)C1O (stereo not drawn) | 386 | 12
12 | CSC1OC(CO)C(O)C(n2cc(C(=O)NCCN3CCOCC3)nn2)C1O (stereo not drawn) | 571 | 7.5
13 | LACTOSE, ANHYDROUS |  | 20
14 | COC(=O)c1cn(C2C(O)C(CO)OC(SC)C2O)nn1 (stereo not drawn) | 1410 | 3.2
15 | CSC1OC(CO)C(O)C(n2cc(C3(O)CCCCC3)nn2)C1O (stereo not drawn) | 1750 | 2.5
